# Results as given in article PMC6099883 (Proceedings of the National Academy of Sciences of the …, 2018).
# pKd: −log10 of the molar value.
# Biological target: T1, OsGID1 with SLR1 (Oryza sativa, UniProt Q6L545)
# T1 sequence (Q6L545 1-354): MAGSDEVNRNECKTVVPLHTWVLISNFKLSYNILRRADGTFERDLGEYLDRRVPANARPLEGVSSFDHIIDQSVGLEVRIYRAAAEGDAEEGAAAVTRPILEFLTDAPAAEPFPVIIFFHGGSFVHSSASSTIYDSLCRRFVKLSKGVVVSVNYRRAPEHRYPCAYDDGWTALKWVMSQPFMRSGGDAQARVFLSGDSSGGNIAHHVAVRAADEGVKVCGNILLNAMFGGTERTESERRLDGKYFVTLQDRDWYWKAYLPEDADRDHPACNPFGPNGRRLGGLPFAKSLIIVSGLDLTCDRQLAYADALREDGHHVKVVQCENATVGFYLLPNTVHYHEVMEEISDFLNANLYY
# T1 sequence (Q7G7J6 1-625 partner): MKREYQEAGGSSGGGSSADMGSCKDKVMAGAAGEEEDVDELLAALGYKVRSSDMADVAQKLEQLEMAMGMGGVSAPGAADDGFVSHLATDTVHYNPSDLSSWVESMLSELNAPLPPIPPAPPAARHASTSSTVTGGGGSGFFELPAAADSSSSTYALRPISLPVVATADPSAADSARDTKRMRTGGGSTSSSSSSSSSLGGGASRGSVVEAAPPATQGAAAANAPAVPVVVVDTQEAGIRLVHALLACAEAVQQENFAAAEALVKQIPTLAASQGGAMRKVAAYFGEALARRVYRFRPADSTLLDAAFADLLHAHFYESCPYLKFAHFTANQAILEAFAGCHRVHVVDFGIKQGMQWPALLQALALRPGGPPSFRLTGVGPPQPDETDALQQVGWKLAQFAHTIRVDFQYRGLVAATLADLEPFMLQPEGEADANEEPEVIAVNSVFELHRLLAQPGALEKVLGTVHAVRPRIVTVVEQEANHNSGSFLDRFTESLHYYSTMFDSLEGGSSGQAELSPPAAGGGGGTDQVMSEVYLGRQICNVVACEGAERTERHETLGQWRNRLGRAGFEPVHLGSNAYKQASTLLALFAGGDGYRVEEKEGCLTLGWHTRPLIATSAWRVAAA
# Test: SPR
# Type: binding
row,pKd,Structure (SMILES)
1,6.52,C=C1C[C@]23C[C@@]1(O)CC[C@H]2[C@@]12CC[C@H](O)[C@@](C)(C(=O)O1)[C@H]2[C@@H]3C(=O)O [GA1]
2,6.53,C=C1C[C@]23C[C@@]1(O)CC[C@H]2[C@@]12C=C[C@H](O)[C@@](C)(C(=O)O1)[C@H]2[C@@H]3C(=O)O [GA3]
